# How the values were obtained:
# [1] = target: T1, DNA gyrase (Escherichia coli) (UniProt P0AES6+P0AES4); conditions: Escherichia coli K-12
# Description: Concentration which causes 50% of the gyrase (Escherichia coli H560)-mediated maximal DNA cleavage.
# [2] = target: T1, DNA gyrase (Escherichia coli); experiment: In vitro antibacterial activity against gram-positive organism Streptococcus bovis A-5169; format: functional; conditions: Streptococcus equinus
# Streptococcus pyogenes = experiment: In vitro antibacterial activity against gram-positive organism Streptococcus pyogenes EES61; format: functional; conditions: Streptococcus pyogenes; read-out: MIC
# [3] = In vitro antibacterial activity against gram-negative organism Pseudomonas aeruginosa 5007; format: functional; conditions: Pseudomonas aeruginosa; read-out: MIC
# [4] = target: T2, DNA gyrase (Staphylococcus aureus) (UniProt P0A0K8+P20831); experiment: In vivo efficacy against Staphylococcus aureus NCTC-10649M after subcutaneous administration; format: functional, organism-based
# [5] = target: T2, DNA gyrase (Staphylococcus aureus); experiment: In vivo efficacy against Staphylococcus aureus NCTC-10649M after oral administration; format: functional, organism-based
# [6] = target: T1, DNA gyrase (Escherichia coli); experiment: In vitro antibacterial activity against gram-positive organism Enterococcus faecium ATCC 8043; format: functional
# [7] = target: T2, DNA gyrase (Staphylococcus aureus); experiment: In vitro antibacterial activity against gram-positive organism Staphylococcus aureus NCTC-10649M; format: functional
# [8] = In vivo efficacy against Pseudomonas aeruginosa 5007 after subcutaneous administration; format: functional; conditions: Pseudomonas aeruginosa, sc; read-out: ED50
# [9] = target: T1, DNA gyrase (Escherichia coli); experiment: In vitro antibacterial against gram-negative organism Escherichia coli JUHL; format: functional; conditions: Escherichia coli K-12
# [10] = In vitro antibacterial activity against gram-negative organism Pseudomonas aeruginosa DPHD-2862; format: functional; conditions: Pseudomonas aeruginosa; read-out: MIC
# [11] = target: T2, DNA gyrase (Staphylococcus aureus); experiment: In vitro antibacterial activity against gram-positive organism Staphylococcus aureus 1775; format: functional
# [12] = target: T2, DNA gyrase (Staphylococcus aureus); experiment: In vitro antibacterial activity against gram-positive organism Staphylococcus aureus ATCC 6538p; format: functional
# [13] = target: T1, DNA gyrase (Escherichia coli); experiment: In vitro antibacterial activity against gram-negative organism Klebsiella pneumoniae ATCC 8045; format: functional
# [14] = target: T1, DNA gyrase (Escherichia coli); experiment: In vitro antibacterial activity against gram-negative organism […] ATCC 13048; format: functional; conditions: Enterobacter aerogenes
# [15] = target: T1, DNA gyrase (Escherichia coli); experiment: In vitro antibacterial activity against gram-negative organism Prov. stuartii CMX-640; format: functional; conditions: Providencia stuartii
# [16] = target: T1, DNA gyrase (Escherichia coli); experiment: In vivo efficacy against Escherichia coli JUHL by subcutaneous administration; format: functional, organism-based; conditions: Escherichia coli K-12
# Pseudomonas aeruginosa = experiment: In vivo efficacy against Pseudomonas aeruginosa 5007 following p.o. administration.
# [17] = target: T1, DNA gyrase (Escherichia coli); experiment: In vivo efficacy against Escherichia coli JUHL after oral administration; format: functional, organism-based; conditions: Escherichia coli K-12
# Streptococcus pneumoniae = experiment: In vivo efficacy against Strep. administration; format: functional
MIC [2],MIC (Streptococcus pyogenes),MIC [3],ED50 [4],ED50 [5],MIC [6],MIC [7],MIC [9],MIC [10],MIC [11],MIC [12],MIC [13],MIC [14],MIC [15],ED50 [16],ED50 (Pseudomonas aeruginosa),ED50 [17],Compound,CC50 [1],ED50 [8],further results
0.005 µg/mL,< 0.001 µg/mL,0.2 µg/mL,0.3 mg/kg,1.2 mg/kg,0.01 µg/mL,0.002 µg/mL,0.01 µg/mL,3.1 µg/mL,0.2 µg/mL,0.002 µg/mL,0.01 µg/mL,0.02 µg/mL,0.39 µg/mL,–,–,–,Cc1c(N2CC[C@H]([C@@H](C)N)C2)c(F)cn2c(=O)c(C(=O)O)cc(C3CC3)c12,0.6 µg/mL,> 8 mg/kg,–
–,–,–,2.7 mg/kg,14.4 mg/kg,–,–,–,–,–,–,–,–,–,< 2.5 mg/kg,68.8 mg/kg,16.6 mg/kg,CC(NC1CCN(c2nc3c(-c4ccc(F)cc4F)cc(C(=O)O)c(=O)n3cc2F)C1)C(=O)O (centres undefined),–,34.4 mg/kg,"ED50 (Streptococcus pneumoniae): 79.8 mg/kg; ED50 (Streptococcus pneumoniae; Streptococcus pneumoniae, read-out: ED50): 164 mg/kg"
0.05 µg/mL,–,–,0.5 mg/kg,2.5 mg/kg,0.1 µg/mL,0.01 µg/mL,0.005 µg/mL,–,0.39 µg/mL,0.01 µg/mL,0.01 µg/mL,0.02 µg/mL,0.39 µg/mL,–,21.4 mg/kg,1 mg/kg,"Cc1c(N2C[C@@H]3CCCN[C@@H]3C2)c(F)cn2c(=O)c(C(=O)O)cc(C3CC3)c12 (stereo in doubt; (S,S)45n)",–,–,–
0.002 µg/mL,0.005 µg/mL,0.39 µg/mL,0.3 mg/kg,1.4 mg/kg,0.02 µg/mL,0.005 µg/mL,0.01 µg/mL,6.2 µg/mL,0.1 µg/mL,0.005 µg/mL,0.02 µg/mL,0.1 µg/mL,0.39 µg/mL,–,–,–,Cc1c(N2C[C@H]3CCC[C@@H](N)[C@H]3C2)c(F)cn2c(=O)c(C(=O)O)cc(C3CC3)c12,–,–,–
0.39 µg/mL,–,0.39 µg/mL,0.6 mg/kg,1.5 mg/kg,0.2 µg/mL,0.1 µg/mL,0.05 µg/mL,6.2 µg/mL,6.2 µg/mL,0.05 µg/mL,0.02 µg/mL,0.05 µg/mL,0.39 µg/mL,0.5 mg/kg,17.9 mg/kg,1.1 mg/kg,"Cc1c(N2C[C@H]3CCN[C@H]3C2)c(F)cn2c(=O)c(C(=O)O)cc(C3CC3)c12 (single isomer, unassigned)",–,5 mg/kg,–
1.56 µg/mL,0.78 µg/mL,0.39 µg/mL,–,–,0.78 µg/mL,0.1 µg/mL,0.02 µg/mL,50 µg/mL,50 µg/mL,0.1 µg/mL,0.01 µg/mL,0.1 µg/mL,6.2 µg/mL,–,–,–,C[C@H]1C[C@H](N)CN1c1nc2c(-c3ccc(F)cc3F)cc(C(=O)O)c(=O)n2cc1F,0.5 µg/mL,–,–
0.05 µg/mL,–,–,0.7 mg/kg,5 mg/kg,0.05 µg/mL,0.02 µg/mL,0.02 µg/mL,–,0.39 µg/mL,0.02 µg/mL,0.01 µg/mL,0.05 µg/mL,0.78 µg/mL,0.4 mg/kg,–,2.5 mg/kg,Cc1c(N2C[C@@H]3CCN[C@@H]3C2)c(F)cn2c(=O)c(C(=O)O)cc(C3CC3)c12 (stereo in doubt; 45o),0.1 µg/mL,–,–
–,–,–,11.4 mg/kg,25.3 mg/kg,–,–,–,–,–,–,–,–,–,3.3 mg/kg,–,26.7 mg/kg,CC(NC(=O)C(C)N[C@H]1C[C@H](C)N(c2nc3c(-c4ccc(F)cc4F)cc(C(=O)O)c(=O)n3cc2F)C1)C(=O)O (some centres undefined),–,–,–

# Source: ChEMBL document CHEMBL1129258, “Synthesis and structure-activity relationships of 2-pyridones: a novel series of potent DNA gyrase inhibitors as antibacterial agents” (J Med Chem, 1996)
